One experiment concerns SD rats. The experiment can be described thus: Anti-antidiuretic activity (effect on endogenous ADH), amount of urine. The class given is in vivo. The conditions noted are these: for ED (3-fold urine volume): Rattus norvegicus, iv, read-out: ED₃. The text has this:
[…] During this measurement, the rats are allowed to take water and feed freely.
The amount of urine of control rats (solvent-treated group) is regarded as 100 %, and the results are expressed as ED₃ value, which is the dose of the test compound to be required to excrete the urine by three times than that of the control rats.

The target of another experiment is T1, V₂ receptor (Rattus norvegicus, UniProt Q00788).
T1 construct: Using rat kidney plasma membrane preparations; from tissue; host or cells: rat kidney plasma membranes
Briefly: V₂ receptor binding assay ([³H]-Arg-vasopressin, rat kidney plasma membrane preparations). The conditions noted are these: 4°C for 3 hours. In short, it runs like this:
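Rat kidney plasma membranes incubated with [³H]-vasopressin and test compound, then filtered on GF/F glass filters and bound radioactivity counted by liquid scintillation.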

In another experiment the target is T2, V₁ receptor (Rattus norvegicus, UniProt P30560).
T2 construct: Using rat liver plasma membrane preparations; from tissue; host or cells: rat liver plasma membranes
Briefly: V₁ receptor binding assay ([³H]-Arg-vasopressin, rat liver plasma membrane preparations). The conditions noted are these: 37°C for 10 minutes. As to the method: Using rat liver plasma membrane preparations prepared according to Ichihara's method [cf: Akira Ichihara, J. Bio. Chem., 258, 9283 (1983)], the plasma membrane (50000dpm, 2x10⁻¹⁰ M) of [³H]-Arg-vasopressin and a test compound (60 µg, 10⁻⁸-10⁻⁴ M) are incubated at 37°C for 10 minutes in 100 mM Tris-HCl buffer (pH: 8.0, 250 µl) containing 5 mM MgCl₂, 1 mM EDTA and 0.1 % BSA. After incubation, the mixture is filtered three times using the glass filter (GF/F) so as to separate the membrane preparation combined with vasopressin and then washed with the buffer (5 ml). This glass filter is taken out and mixed with liquid scintillation cocktail. The amount of [³H]-vasopressin combined with the membrane is measured by liquid scintillation counter and the rate of the inhibitory effect of the test compound is estimated according to the following equation. Rate of the inhibitory effect (%) = 100 -(C1 - B1)/(C0 - B1)X 100 [formula] C¹: The amount of [³H]-vasopressin combined with the membrane in the presence of the test compound (in prescribed amount). C⁰: The amount of [³H]-vasopressin combined with the membrane in the absence of the test compound. B¹: The amount of [³H]-vasopressin combined with the membrane in the presence of the excess amount of vasopressin (10⁻⁶ M).
The results are expressed as IC₅₀ values, which is the concentration of the test compound required to achieve the inhibitory effect in the rate of 50 %.

[1] abbreviates: administered into a caudal vein, urine collected for 2 hours, dose to excrete the urine by three times that of control rats, solvent dimethylformamide.

Structures are written as SMILES.

The values below come from patent EP0450097B1, “BENZOHETEROCYCLIC COMPOUNDS” (OTSUKA PHARMACEUTICAL CO., LTD., priority 1989, dated 1991).

T1 sequence (Q00788 whole entry): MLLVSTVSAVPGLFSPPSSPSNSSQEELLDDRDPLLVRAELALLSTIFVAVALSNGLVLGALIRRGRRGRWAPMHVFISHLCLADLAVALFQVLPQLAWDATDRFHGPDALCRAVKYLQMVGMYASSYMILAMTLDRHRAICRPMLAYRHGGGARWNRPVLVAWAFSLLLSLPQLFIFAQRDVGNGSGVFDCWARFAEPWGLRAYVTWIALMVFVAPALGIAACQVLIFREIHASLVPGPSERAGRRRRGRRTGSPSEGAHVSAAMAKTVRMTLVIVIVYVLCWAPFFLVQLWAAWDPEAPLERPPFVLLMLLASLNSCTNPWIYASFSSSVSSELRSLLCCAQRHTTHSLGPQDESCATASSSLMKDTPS
T2 sequence (P30560 whole entry): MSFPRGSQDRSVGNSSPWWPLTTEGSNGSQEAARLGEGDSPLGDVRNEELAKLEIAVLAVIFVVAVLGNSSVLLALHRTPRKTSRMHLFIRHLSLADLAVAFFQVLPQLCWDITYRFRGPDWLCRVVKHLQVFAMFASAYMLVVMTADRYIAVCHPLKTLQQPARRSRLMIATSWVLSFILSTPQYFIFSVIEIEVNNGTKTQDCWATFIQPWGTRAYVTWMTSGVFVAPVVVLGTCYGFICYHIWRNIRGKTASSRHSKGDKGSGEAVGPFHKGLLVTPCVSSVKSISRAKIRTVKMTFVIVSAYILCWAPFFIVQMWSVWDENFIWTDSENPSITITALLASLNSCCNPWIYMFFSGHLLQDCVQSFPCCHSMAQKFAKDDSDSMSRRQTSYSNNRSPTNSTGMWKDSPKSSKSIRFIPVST

Take `Cc1ccccc1C(=O)Nc1ccc(C(=O)N2CCCC(N(C)C)c3ccccc32)cc1` (centres unmarked) [compound 249]: the ED₃ in the experiment on SD rats (as E3, but physiological saline solution used as solvent instead of dimethylformamide) is reported as 0.4 ^*) mg/kg.
What is called IC50 is the concentration that inhibits the measured activity by half. As to `Cc1cccc(C(=O)Nc2ccc(C(=O)N3CCCc4ccccc43)cc2)c1C` [compound 6], the ED (3-fold urine volume) in the experiment with SD rats (setting [1]) was determined as 10 mg/kg. The molecule further had an IC50 on V₂ receptor of 76 nM.
In the experiment with SD rats (setting [1]), `O=C(Nc1ccc(C(=O)N2CCCC(O)c3ccccc32)cc1)c1cc(Cl)cc(Cl)c1` (centres unmarked) [compound 178] displayed an ED₃ of 4.2 mg/kg. The molecule also displayed an IC50 on V₂ receptor of 12 nM.
With `Cc1cccc(C(=O)Nc2ccc(C(=O)N3CCCCc4ccccc43)cc2)c1C` [compound 33], in the experiment with SD rats (setting [1]), the ED (3-fold urine volume) was found to be 1.9 mg/kg. Further, the IC50 at V₂ receptor was determined as 7 nM; at V₁ receptor, 92 nM.
In the case of `Cc1ccccc1C(=O)Nc1ccc(C(=O)N2CCCC(CO)c3ccccc32)cc1` (centres unmarked) [compound 215], the IC50 on V₂ receptor amounted to 6 nM; on V₁ receptor it was 130 nM.
The corresponding values for `Cc1ccccc1C(=O)Nc1ccc(C(=O)N2CCCCc3ccccc32)cc1` [compound 28] are 18 nM and 56 nM.
The corresponding values for `Nc1cccc(C(=O)Nc2ccc(C(=O)N3CCCCc4ccccc43)cc2)c1` [compound 67] are 50 nM and 340 nM.
Turning to `Cc1ccccc1C(=O)Nc1ccc(C(=O)N2CCCC(NC3CC3)c3cc(Cl)ccc32)cc1` (centres unmarked) [compound 310], the IC50 stood at 8 nM at V₂ receptor and 65 nM at V₁ receptor.
The corresponding values for `O=C(Nc1ccc(C(=O)N2CCCCc3ccccc32)cc1)c1ccccc1OCCCCO` [compound 120] are 280 nM and 290 nM.
In the case of `COc1cc(C(=O)N2CCCCc3ccccc32)ccc1NC(=O)c1ccccc1` [compound 77], the IC50 on V₂ receptor amounted to 90 nM; at V₁ receptor it was 85 nM.
As for `Cc1ccccc1C(=O)Nc1ccc(C(=O)N2CCCC(OCC(=O)N(C)C)c3ccccc32)cc1` (centres unmarked) [compound 163], the IC50 at V₂ receptor stood at 9 nM; on V₁ receptor, 220 nM.
For `CN(C)C1CCCN(C(=O)c2ccc(NC(=O)c3ccccc3Br)cc2)c2ccccc21` (centres unmarked) [compound 309], the IC50 worked out at 15 nM on V₂ receptor and 430 nM on V₁ receptor.
The corresponding values for `CCN(CC)C(=O)COc1ccccc1C(=O)Nc1ccc(C(=O)N2CCCCc3ccccc32)cc1` [compound 124] are 130 nM and 150 nM.
On the same counts, the results for `COc1cc(C(=O)N2CCCCc3ccccc32)ccc1NC(=O)C1CCCCC1` [compound 76] are 17 nM and 42 nM.
The corresponding values for `Cc1cc(C(=O)N2CCCCc3ccccc32)ccc1NC(=O)c1ccccc1C` [compound 78] are 84 nM and 100 nM.
Turning to `CC(=O)NCCCOC1CCCN(C(=O)c2ccc(NC(=O)c3ccccc3C)cc2)c2ccccc21` (centres unmarked) [compound 174], the IC50 worked out at 7 nM on V₂ receptor and 140 nM on V₁ receptor.
The corresponding values for `CCOC(=O)COc1ccccc1C(=O)Nc1ccc(C(=O)N2CCCCc3ccccc32)cc1` [compound 121] are 180 nM and 450 nM.
On the same counts, the results for `O=C(Nc1ccc(C(=O)N2CCCCc3ccccc32)cc1)c1ccccc1` [compound 27] are 70 nM and 95 nM.
On the same counts, the results for `Cc1ccccc1C(=O)Nc1ccc(C(=O)N2CCCC(OCCCN3C(=O)c4ccccc4C3=O)c3ccccc32)cc1` (centres unmarked) [compound 172] are 23 nM and 260 nM.
